Starred links: 1 amine or outer side, 2 acyl side, 3 side chain; linkers in the order of their positions; H or OH if unused. Non-standard residues stand in square brackets, D forms with d. Residues, ends and D or L forms follow the SMILES beside them. Groups on a side chain read outwards from the residue. *: point of attachment. C20 diacid = O=C(O)CCCCCCCCCCCCCCCCCCC(=O)*; C18 diacid = O=C(O)CCCCCCCCCCCCCCCCC(=O)*; γGlu = O=C(O)[C@H](CCC(=O)[*:2])N[*:1]; αMeF = C[C@](N)(Cc1ccccc1)C(=O)O; AEEA = NCCOCCOCC(=O)O; Aib = CC(C)(N)C(=O)O
Experiments:
[1] = biological target: human GLP-1 receptor (hGLP-1R) (Homo sapiens, UniProt P43220); assay: cAMP production (HTRF) in CHO cells expressing hGLP-1R; type: cell-based; design: expressed in transfected cells; conditions: for EC50: Table 7, peptides modified at position 20, cAMP in CHO hGLP-1R cells, geometric mean, read-out: hGLP-1R EC50; for % Relative Potency Ratio: Table 7, % GLP-1R activity relative to GLP-1 / % GlucR activity relative to glucagon
Sequence of human GLP-1 receptor (hGLP-1R) (P43220 24-463): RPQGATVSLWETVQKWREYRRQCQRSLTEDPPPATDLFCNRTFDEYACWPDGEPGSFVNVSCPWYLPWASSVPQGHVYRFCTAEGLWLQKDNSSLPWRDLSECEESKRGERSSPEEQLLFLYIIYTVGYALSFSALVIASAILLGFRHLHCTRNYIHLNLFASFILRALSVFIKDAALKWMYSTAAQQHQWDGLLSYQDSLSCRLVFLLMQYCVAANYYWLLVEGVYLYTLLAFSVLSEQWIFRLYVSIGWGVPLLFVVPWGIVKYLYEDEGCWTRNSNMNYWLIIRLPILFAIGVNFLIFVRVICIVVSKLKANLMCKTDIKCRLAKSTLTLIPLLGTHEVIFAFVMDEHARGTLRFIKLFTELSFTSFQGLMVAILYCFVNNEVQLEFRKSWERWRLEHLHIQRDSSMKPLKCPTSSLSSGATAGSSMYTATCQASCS
Method in brief: (§1)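 Potency values represent EC50 from 4-parameter logistic curves of HTRF % Delta F signal. Receptor-expressing CHO cells (hGCGR 2×10^5 cells/mL, hGLP-1R 1×10^5 cells/mL) were exposed for 30 min at room temperature before two-step cAMP detection.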

[2] = biological target: human glucagon receptor (hGCGR) (Homo sapiens, UniProt P47871); assay: cAMP production (HTRF) in CHO cells expressing hGCGR; type: cell-based; design: expressed in transfected cells; conditions: Table 7, peptides modified at position 20; cAMP in CHO hGCGR cells; geometric mean; read-out: hGluc-R EC50
Sequence of human glucagon receptor (hGCGR) (P47871 26-477): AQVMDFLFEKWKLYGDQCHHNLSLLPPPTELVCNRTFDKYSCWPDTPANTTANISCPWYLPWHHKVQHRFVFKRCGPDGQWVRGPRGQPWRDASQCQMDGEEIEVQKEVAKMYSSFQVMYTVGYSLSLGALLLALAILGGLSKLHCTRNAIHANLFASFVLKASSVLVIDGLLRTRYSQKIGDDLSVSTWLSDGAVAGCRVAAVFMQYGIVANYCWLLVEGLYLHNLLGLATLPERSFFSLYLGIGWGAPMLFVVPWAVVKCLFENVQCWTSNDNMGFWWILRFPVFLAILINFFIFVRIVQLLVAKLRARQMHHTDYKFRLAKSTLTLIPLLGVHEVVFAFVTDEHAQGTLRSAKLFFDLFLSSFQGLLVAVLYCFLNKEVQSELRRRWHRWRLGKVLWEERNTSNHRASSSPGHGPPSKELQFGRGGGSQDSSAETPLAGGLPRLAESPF
Method in brief: as §1

Row | SMILES | EC50 [1] [nM] | % Relative Potency Ratio [1] | EC50 [2] [nM]
1 | CC[C@H](C)[C@H](NC(=O)C(C)(C)NC(=O)[C@H](CCC(N)=O)NC(=O)[C@@H](NC(=O)[C@](C)(Cc1ccccc1)NC(=O)[C@H](CC(=O)O)NC(=O)[C@H](CCCCNC(=O)COCCOCCNC(=O)CCCCCCCCCCCCCCCCCCC(=O)O)NC(=O)[C@H](C)NC(=O)[C@H](C)NC(=O)[C@H](CCCNC(=N)N)NC(=O)[C@H](CO)NC(=O)[C@H](CC(=O)O)NC(=O)[C@H](CC(C)C)NC(=O)[C@](C)(Cc1ccccc1)NC(=O)[C@H](CCCCN)NC(=O)[C@H](CO)NC(=O)[C@@H](NC(=O)[C@H](CC(=O)O)NC(=O)[C@H](CO)NC(=O)[C@@H](NC(=O)[C@](C)(Cc1ccccc1)NC(=O)[C@H](CO)NC(=O)CNC(=O)[C@H](Cc1c[nH]cn1)NC(=O)C(C)(C)NC(=O)[C@@H](N)Cc1c[nH]cn1)[C@@H](C)O)C(C)C)C(C)C)C(=O)N[C@@H](C)C(=O)N[C@@H](CC(N)=O)C(=O)N[C@H](C(N)=O)[C@@H](C)O [Peptide 278] (H-H[Aib]HGS[αMeF]TSDVSK[αMeF]LDSRAAK([AEEA-C20 diacid])D[αMeF]VQ[Aib]IANT-NH2) | 0.0789 | 2.1 | 0.0835
2 | CC[C@H](C)[C@H](NC(=O)C(C)(C)NC(=O)[C@H](CCC(N)=O)NC(=O)[C@@H](NC(=O)[C@](C)(Cc1ccccc1)NC(=O)[C@H](CC(=O)O)NC(=O)[C@H](CCCCNC(=O)COCCOCCNC(=O)CC[C@H](NC(=O)CC[C@H](NC(=O)CCCCCCCCCCCCCCCCCCC(=O)O)C(=O)O)C(=O)O)NC(=O)[C@H](C)NC(=O)[C@H](C)NC(=O)[C@H](CCCNC(=N)N)NC(=O)[C@H](CO)NC(=O)[C@H](CC(=O)O)NC(=O)[C@H](CC(C)C)NC(=O)[C@](C)(Cc1ccccc1)NC(=O)[C@H](CCCCN)NC(=O)[C@H](CO)NC(=O)[C@@H](NC(=O)[C@H](CC(=O)O)NC(=O)[C@H](CO)NC(=O)[C@@H](NC(=O)[C@](C)(Cc1ccccc1)NC(=O)[C@H](CO)NC(=O)CNC(=O)[C@H](Cc1c[nH]cn1)NC(=O)C(C)(C)NC(=O)[C@@H](N)Cc1c[nH]cn1)[C@@H](C)O)C(C)C)C(C)C)C(=O)N[C@@H](C)C(=O)N[C@@H](CC(N)=O)C(=O)N[C@H](C(N)=O)[C@@H](C)O [Peptide 279] (H-H[Aib]HGS[αMeF]TSDVSK[αMeF]LDSRAAK([AEEA-γGlu-γGlu-C20 diacid])D[αMeF]VQ[Aib]IANT-NH2) | 0.0865 | 3.4 | 0.15
3 | CC[C@H](C)[C@H](NC(=O)C(C)(C)NC(=O)[C@H](CCC(N)=O)NC(=O)[C@@H](NC(=O)[C@](C)(Cc1ccccc1)NC(=O)[C@H](CC(=O)O)NC(=O)[C@H](CCCCNC(=O)COCCOCCNC(=O)COCCOCCNC(=O)CC[C@H](NC(=O)CC[C@H](NC(=O)CCCCCCCCCCCCCCCCCCC(=O)O)C(=O)O)C(=O)O)NC(=O)[C@H](C)NC(=O)[C@H](C)NC(=O)[C@H](CCCNC(=N)N)NC(=O)[C@H](CO)NC(=O)[C@H](CC(=O)O)NC(=O)[C@H](CC(C)C)NC(=O)[C@](C)(Cc1ccccc1)NC(=O)[C@H](CCCCN)NC(=O)[C@H](CO)NC(=O)[C@@H](NC(=O)[C@H](CC(=O)O)NC(=O)[C@H](CO)NC(=O)[C@@H](NC(=O)[C@](C)(Cc1ccccc1)NC(=O)[C@H](CO)NC(=O)CNC(=O)[C@H](Cc1c[nH]cn1)NC(=O)[C@H](CO)NC(=O)[C@@H](N)Cc1c[nH]cn1)[C@@H](C)O)C(C)C)C(C)C)C(=O)N[C@@H](C)C(=O)N[C@@H](CC(N)=O)C(=O)N[C@H](C(N)=O)[C@@H](C)O [Peptide 281] (H-HSHGS[αMeF]TSDVSK[αMeF]LDSRAAK([AEEA-AEEA-γGlu-γGlu-C20 diacid])D[αMeF]VQ[Aib]IANT-NH2) | 0.155 | 13.3 | 1.04
4 | CC[C@H](C)[C@H](NC(=O)C(C)(C)NC(=O)[C@H](CCC(N)=O)NC(=O)[C@@H](NC(=O)[C@](C)(Cc1ccccc1)NC(=O)[C@H](CC(=O)O)NC(=O)[C@H](CCCCNC(=O)COCCOCCNC(=O)COCCOCCNC(=O)CC[C@H](NC(=O)CCCCCCCCCCCCCCCCC(=O)O)C(=O)O)NC(=O)[C@H](C)NC(=O)[C@H](C)NC(=O)[C@H](CCCNC(=N)N)NC(=O)[C@H](CO)NC(=O)[C@H](CC(=O)O)NC(=O)[C@H](CC(C)C)NC(=O)[C@](C)(Cc1ccccc1)NC(=O)[C@H](CCCCN)NC(=O)[C@H](CO)NC(=O)[C@@H](NC(=O)[C@H](CC(=O)O)NC(=O)[C@H](CO)NC(=O)[C@@H](NC(=O)[C@](C)(Cc1ccccc1)NC(=O)[C@H](CO)NC(=O)CNC(=O)[C@H](Cc1c[nH]cn1)NC(=O)[C@H](CO)NC(=O)[C@@H](N)Cc1c[nH]cn1)[C@@H](C)O)C(C)C)C(C)C)C(=O)N[C@@H](C)C(=O)N[C@@H](CC(N)=O)C(=O)N[C@H](C(N)=O)[C@@H](C)O [Peptide 284] (H-HSHGS[αMeF]TSDVSK[αMeF]LDSRAAK([AEEA-AEEA-γGlu-C18 diacid])D[αMeF]VQ[Aib]IANT-NH2) | 0.0434 | 5.4 | 0.119

Continued by falling EC50 [1], values first:

Row | EC50 [1] [nM] | % Relative Potency Ratio [1] | EC50 [2] [nM] | SMILES
5 | 0.301 | 0.6 | 0.087 | CC[C@H](C)[C@H](NC(=O)C(C)(C)NC(=O)[C@H](CCC(N)=O)NC(=O)[C@@H](NC(=O)[C@](C)(Cc1ccccc1)NC(=O)[C@H](CC(=O)O)NC(=O)[C@H](CCCCNC(=O)COCCOCCNC(=O)COCCOCCNC(=O)CC[C@H](NC(=O)CCCCCCCCCCCCCCCCC(=O)O)C(=O)O)NC(=O)[C@H](C)NC(=O)[C@H](C)NC(=O)[C@H](CCCNC(=N)N)NC(=O)[C@H](CO)NC(=O)[C@H](CC(=O)O)NC(=O)[C@H](CC(C)C)NC(=O)[C@](C)(Cc1ccccc1)NC(=O)[C@H](CCCCN)NC(=O)[C@H](CO)NC(=O)[C@@H](NC(=O)[C@H](CC(=O)O)NC(=O)[C@H](CO)NC(=O)[C@@H](NC(=O)[C@H](Cc1ccccc1)NC(=O)[C@H](CO)NC(=O)CNC(=O)[C@H](Cc1c[nH]cn1)NC(=O)C(C)(C)NC(=O)[C@@H](N)Cc1c[nH]cn1)[C@@H](C)O)C(C)C)C(C)C)C(=O)N[C@@H](C)C(=O)N[C@@H](CC(N)=O)C(=O)N[C@H](C(N)=O)[C@@H](C)O [Peptide 285] (H-H[Aib]HGSFTSDVSK[αMeF]LDSRAAK([AEEA-AEEA-γGlu-C18 diacid])D[αMeF]VQ[Aib]IANT-NH2)
6 | 0.143 | 1.3 | 0.0914 | CC[C@H](C)[C@H](NC(=O)C(C)(C)NC(=O)[C@H](CCC(N)=O)NC(=O)[C@@H](NC(=O)[C@](C)(Cc1ccccc1)NC(=O)[C@H](CC(=O)O)NC(=O)[C@H](CCCCNC(=O)CC[C@H](NC(=O)CCCCCCCCCCCCCCCCCCC(=O)O)C(=O)O)NC(=O)[C@H](C)NC(=O)[C@H](C)NC(=O)[C@H](CCCNC(=N)N)NC(=O)[C@H](CO)NC(=O)[C@H](CC(=O)O)NC(=O)[C@H](CC(C)C)NC(=O)[C@](C)(Cc1ccccc1)NC(=O)[C@H](CCCCN)NC(=O)[C@H](CO)NC(=O)[C@@H](NC(=O)[C@H](CC(=O)O)NC(=O)[C@H](CO)NC(=O)[C@@H](NC(=O)[C@](C)(Cc1ccccc1)NC(=O)[C@H](CO)NC(=O)CNC(=O)[C@H](Cc1c[nH]cn1)NC(=O)C(C)(C)NC(=O)[C@@H](N)Cc1c[nH]cn1)[C@@H](C)O)C(C)C)C(C)C)C(=O)N[C@@H](C)C(=O)N[C@@H](CC(N)=O)C(=O)N[C@H](C(N)=O)[C@@H](C)O [Peptide 276] (H-H[Aib]HGS[αMeF]TSDVSK[αMeF]LDSRAAK([γGlu-C20 diacid])D[αMeF]VQ[Aib]IANT-NH2)
7 | 0.0783 | 3.9 | 0.155 | CC[C@H](C)[C@H](NC(=O)C(C)(C)NC(=O)[C@H](CCC(N)=O)NC(=O)[C@@H](NC(=O)[C@](C)(Cc1ccccc1)NC(=O)[C@H](CC(=O)O)NC(=O)[C@H](CCCCNC(=O)COCCOCCNC(=O)COCCOCCNC(=O)CC[C@H](NC(=O)CCCCCCCCCCCCCCCCCCC(=O)O)C(=O)O)NC(=O)[C@H](C)NC(=O)[C@H](C)NC(=O)[C@H](CCCNC(=N)N)NC(=O)[C@H](CO)NC(=O)[C@H](CC(=O)O)NC(=O)[C@H](CC(C)C)NC(=O)[C@](C)(Cc1ccccc1)NC(=O)[C@H](CCCCN)NC(=O)[C@H](CO)NC(=O)[C@@H](NC(=O)[C@H](CC(=O)O)NC(=O)[C@H](CO)NC(=O)[C@@H](NC(=O)[C@](C)(Cc1ccccc1)NC(=O)[C@H](CO)NC(=O)CNC(=O)[C@H](Cc1c[nH]cn1)NC(=O)C(C)(C)NC(=O)[C@@H](N)Cc1c[nH]cn1)[C@@H](C)O)C(C)C)C(C)C)C(=O)N[C@@H](C)C(=O)N[C@@H](CC(N)=O)C(=O)N[C@H](C(N)=O)[C@@H](C)O [Peptide 280] (H-H[Aib]HGS[αMeF]TSDVSK[αMeF]LDSRAAK([AEEA-AEEA-γGlu-C20 diacid])D[αMeF]VQ[Aib]IANT-NH2)
8 | 0.0495 | 2.3 | 0.0573 | CC[C@H](C)[C@H](NC(=O)C(C)(C)NC(=O)[C@H](CCC(N)=O)NC(=O)[C@@H](NC(=O)[C@](C)(Cc1ccccc1)NC(=O)[C@H](CC(=O)O)NC(=O)[C@H](CCCCNC(=O)COCCOCCNC(=O)COCCOCCNC(=O)CCCCCCCCCCCCCCCCCCC(=O)O)NC(=O)[C@H](C)NC(=O)[C@H](C)NC(=O)[C@H](CCCNC(=N)N)NC(=O)[C@H](CO)NC(=O)[C@H](CC(=O)O)NC(=O)[C@H](CC(C)C)NC(=O)[C@](C)(Cc1ccccc1)NC(=O)[C@H](CCCCN)NC(=O)[C@H](CO)NC(=O)[C@@H](NC(=O)[C@H](CC(=O)O)NC(=O)[C@H](CO)NC(=O)[C@@H](NC(=O)[C@](C)(Cc1ccccc1)NC(=O)[C@H](CO)NC(=O)CNC(=O)[C@H](Cc1c[nH]cn1)NC(=O)C(C)(C)NC(=O)[C@@H](N)Cc1c[nH]cn1)[C@@H](C)O)C(C)C)C(C)C)C(=O)N[C@@H](C)C(=O)N[C@@H](CC(N)=O)C(=O)N[C@H](C(N)=O)[C@@H](C)O [Peptide 277] (H-H[Aib]HGS[αMeF]TSDVSK[αMeF]LDSRAAK([AEEA-AEEA-C20 diacid])D[αMeF]VQ[Aib]IANT-NH2)
